Reference: the supplement of paper PMC8960247
Structures can show the parent of a compound that is named as a salt. ± gives the standard error.

Experiments:
[1] = tested on: 621-102 (TSC2-deficient); test: relative viability vs DMSO; higher = less cytotoxic; conditions: serum: 10% FBS, 72 h
[2] = tested on: 621-103 (TSC2-rescued); test: as above; conditions: serum: 10% FBS, 72 h
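Also: immortalized renal angiomyolipoma cells stably carrying empty vector or TSC2, dosed in 384-well plates in DMEM, viability normalized to vehicle-treated wells within each plate.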

| Compound | relative viability ([1]; 0.0001 µM) [%] | relative viability ([1]; 0.001 µM) [%] | relative viability ([1]; 0.01 µM) [%] | relative viability ([1]; 0.1 µM) [%] | relative viability ([1]; 1 µM) [%] | relative viability ([1]; 10 µM) [%] | relative viability ([2]; 0.0001 µM) [%] | relative viability ([2]; 0.001 µM) [%] | relative viability ([2]; 0.01 µM) [%] | relative viability ([2]; 0.1 µM) [%] | relative viability ([2]; 1 µM) [%] | relative viability ([2]; 10 µM) [%] |
| --- | --- | --- | --- | --- | --- | --- | --- | --- | --- | --- | --- | --- |
| COC(=O)[C@H](c1ccccc1Cl)N1CCc2sccc2C1 [Clopidogrel Bisulfate] | 105 ± 1.4 | 102 ± 1.4 | 108.3 ± 0.95 | 105 ± 1.4 | 105 ± 4 | 99.8 ± 5.3 | 109.1 ± 0.85 | 108 ± 4.5 | 111 ± 4.1 | 103 ± 2 | 104.86 ± 0.079 | 102.2 ± 0.55 |
| COc1ccc(-c2ccc3c(N4CCOC[C@@H]4C)nc(N4CCOC[C@@H]4C)nc3n2)cc1CO [AZD8055] | 80 ± 3.1 | 86.2 ± 2.7 | 66.51 ± 0.58 | 39.8 ± 0.67 | 21.4 ± 2.2 | 19 ± 0.54 | 90.4 ± 3.3 | 81.1 ± 4.3 | 69 ± 0.95 | 48.4 ± 0.71 | 34.6 ± 0.72 | 34.3 ± 1.4 |
| CC(C[N+](C)(C)C)OC(N)=O (stereo not drawn) [Bethanechol chloride] | 103 ± 3.5 | 105 ± 3.1 | 104 ± 2.9 | 103.4 ± 0.49 | 100 ± 1.8 | 101 ± 3 | 96.28 ± 0.78 | 102 ± 1.9 | 105 ± 1.4 | 105 ± 0.93 | 103.7 ± 0.9 | 101.6 ± 0.12 |
| CCOC(=O)[C@H](CCc1ccccc1)N[C@@H](C)C(=O)N1CCC[C@H]1C(=O)O [Enalapril Maleate] | 103 ± 1.4 | 92.6 ± 3.4 | 101.9 ± 0.59 | 101 ± 3.5 | 105 ± 4.1 | 100.5 ± 0.3 | 99 ± 1.8 | 100 ± 2.9 | 89.7 ± 10 | 100 ± 1.5 | 99.6 ± 0.35 | 103 ± 2.4 |
| CC/C(=C(\c1ccccc1)c1ccc(OCCN(C)C)cc1)c1ccccc1 [Tamoxifen Citrate] | 102.7 ± 0.75 | 98.8 ± 1.8 | 111 ± 2.6 | 98.76 ± 0.6 | 100.8 ± 1 | 80.9 ± 5.2 | 101 ± 3.6 | 102 ± 3.1 | 104 ± 5.2 | 101 ± 2.4 | 107 ± 3.5 | 48.1 ± 2.6 |
| NC(=O)c1ncn([C@@H]2O[C@H](CO)[C@@H](O)[C@H]2O)c1O [Mizoribine] | 102 ± 2.1 | 98.3 ± 1.2 | 102 ± 1.2 | 100.8 ± 0.97 | 99.9 ± 2.9 | 92.9 ± 2.9 | 104.1 ± 0.62 | 99.8 ± 2 | 99.1 ± 2.2 | 105 ± 3.8 | 98.1 ± 2.5 | 97.4 ± 2.2 |
| COc1cc2c(cc1OC)C(=O)C(CC1CCN(Cc3ccccc3)CC1)C2 (stereo not drawn) [Donepezil HCl] | 96.2 ± 3.9 | 108 ± 4.1 | 103.6 ± 0.26 | 111 ± 1.3 | 101.6 ± 0.44 | 86.8 ± 1.3 | 93.1 ± 3 | 105 ± 2.5 | 102 ± 4.3 | 106 ± 1.8 | 104 ± 3.4 | 93.21 ± 0.93 |
| Nc1nc(=O)[nH]cc1F [Flucytosine (Ancobon)] | 92.9 ± 2.9 | 99.4 ± 1.2 | 103.85 ± 0.042 | 102.2 ± 0.19 | 98.4 ± 4.1 | 92.5 ± 3.2 | 105.5 ± 0.24 | 101 ± 3.4 | 104.5 ± 0.84 | 106 ± 1.2 | 103 ± 1.4 | 98.9 ± 4.4 |
| OCCn1cc(-c2cnc3nnn(Cc4ccc5ncccc5c4)c3n2)cn1 | 103 ± 2.2 | 98.7 ± 1.2 | 89.7 ± 2.1 | 100 ± 3.4 | 96 ± 2.5 | 93.2 ± 1.2 | 104.7 ± 0.61 | 102 ± 0.94 | 101.9 ± 0.21 | 103 ± 1.6 | 103.2 ± 0.56 | 99.7 ± 2.3 |
